The target of data set [1] is Chymotrypsinogen A (Bos taurus) (UniProt P00766). Particulars: 120 nM.
The target is the same in data set [2]. Particulars: 276 nM.
For data set [3], the target named is T1, Chymotrypsinogen A (Bos taurus, UniProt P00766). Briefly: Compound was tested for the inhibition of chymotrypsin at 120 nM.
Data set [4] has as its target T1, Chymotrypsinogen A. Briefly: Compound was tested for the inhibition of chymotrypsin at 276 nM.
Data set [5] is described as follows: Compound was tested for the inhibition of subtilisin carlsberg at 300 nM.
Data set [6] can be described thus: Compound was tested for the inhibition of subtilisin carlsberg at 690 nM.
The target in data set [7] is T1, Chymotrypsinogen A. Briefly: Compound was tested for the inhibition of chymotrypsin at 138 nM.
In data set [8] the target is T1, Chymotrypsinogen A. Kind of data set: Compound was tested for the inhibition of chymotrypsin at 69 nM.
The nature of data set [9]: Compound was tested for the inhibition of subtilisin carlsberg at 138 nM.
The nature of data set [10]: Compound was tested for the inhibition of subtilisin carlsberg at 23 nM.
Data set [11] has as its system CC[C@H](C)[C@@H]1NC(=O)[C@@H](CCCN=C(N)N)NC(=O)[C@H](Cc2ccc(O)cc2)NC(=O)[C@@H](CCC(=O)O)NC(=O)[C@H](CCSC)NC(=O)[C@@H]([C@@H](C)O)NC(=O)[C@H](N)CCC(=O)NCCCC[C@H](C(N)=O)NC(=O)[C@@H](C(C)C)NC(=O)[C@H](CCCN=C(N)N)NC(=O)[C@@H](CCC(=O)O)NC1=O. Particulars: 276 nM.
Data set [12] shares this test system. Particulars: 120 nM.
Data set [13] has the same test system. As to conditions: 276 nM. The source holds these as a separate data set.
Data set [14] shares this test system. As to conditions: 120 nM. The source holds these as a separate data set.

By Ki is commonly meant the dissociation constant of the complex between target and ligand, obtained from inhibition or displacement. One may read the Km as the substrate concentration at which the rate is half of its maximum.

For `CC[C@H](C)[C@@H]1NC(=O)[C@@H](CCCN=C(N)N)NC(=O)[C@H](Cc2ccc(O)cc2)NC(=O)[C@@H](CCC(=O)O)NC(=O)[C@H](CCSC)NC(=O)[C@@H]([C@@H](C)O)NC(=O)[C@H](N)CCC(=O)NCCCC[C@H](C(N)=O)NC(=O)[C@@H](C(C)C)NC(=O)[C@H](CCCN=C(N)N)NC(=O)[C@@H](CCC(=O)O)NC1=O`, the k cat came to 55.1 s⁻¹ in data set [1] and 45.8 s⁻¹ in data set [2].
For the compound `CC[C@H](C)[C@@H]1NC(=O)[C@H](CCCNC(=N)N)NC(=O)[C@H](Cc2ccc(O)cc2)NC(=O)[C@H](CCC(=O)O)NC(=O)[C@H](CCSC)NC(=O)[C@H]([C@@H](C)O)NC(=O)[C@@H](N)CCC(=O)NCCCC[C@@H](C(N)=O)NC(=O)[C@H](C(C)C)NC(=O)[C@H](CCCNC(=N)N)NC(=O)[C@H](CCC(=O)O)NC1=O`, the Ki on Chymotrypsinogen A [3] is 668 nM; at Chymotrypsinogen A [4], 656 nM; in data set [5], 775 nM; in data set [6] it was 786 nM.
On to `CC[C@H](C)[C@@H]1NC(=O)[C@@H](NC(C)=O)CC(=O)/N=C(/N)NCCC[C@@H](C(N)=O)NC(=O)[C@H](Cc2ccc(O)cc2)NC(=O)[C@H](CCC(=O)O)NC(=O)[C@H](CCSC)NC(=O)[C@H]([C@@H](C)O)NC(=O)[C@H](C(C)C)NC1=O`, for which the inhibition constant (Ki) came out at 191 nM on Chymotrypsinogen A [7], 203 nM at Chymotrypsinogen A [8], 116 nM in [9] and 128 nM in data set [10].
On to “Chymotrypsinogen A (Bos taurus) (from UniProt P00766)”, for which the results for the Km in data set [11] and in data set [14] were 298 µM and 310 µM, respectively. In addition, the Vmax in data set [12] came to 3.89e-07 M⁻¹ s⁻¹; in data set [13], 3.23e-07 M⁻¹ s⁻¹.

The record behind these values is ChEMBL document CHEMBL1152090, “Engineering of cyclic peptides with novel inhibiting properties to differentiate two serine proteases, chymotrypsin and subtilisin Carlsberg” (Bioorg Med Chem Lett, 1994).
